Experimental findings from patent US7652155B2, “Diamine derivative, production process therefor and antioxidant” (Nippon Soda Co., Ltd., priority 2003, dated 2010) are described below.

Data set [1] has as its system 66 kDa protein in rat retina. The data set can be described thus: Inhibitory action on increases in 66 kDa protein in UV-A irradiated rat retina. In kind it is in vivo. To be noted: male Wistar rats, 100 mg/kg p.o. 30 minutes before UV-A (12 mW/cm^2, 30 minutes); retinas 48 hours after irradiation; N = 3. As for the experimental part:
The inhibitory action of the compound according to the present invention on increases in 66 kDa protein in rat retina irradiated with UV light was evaluated. The test compound was dissolved or suspended in 0.1 N aqueous hydrochloric acid solution or 1% polyethylene hardened castor oil (Nikkol HCO-60) and orally administered to male Wistar rats (age: 7-9 weeks) followed 30 minutes later by irradiation of the right eye with UV-A (12 mW/cm^2) for 30 minutes using a UV spot light source. In addition, the left eye was not irradiated and used as a control. The rats were housed in an environment blocked from interior light both during UV-A irradiation and for 2 hours before and after irradiation. The retinas were separated 48 hours after irradiation and 5% homogenates were prepared using the same method as described in Example 4. Changes in retina protein were determined by SDS-polyacrylamide gel electrophoresis in accordance with the method of Lammli (Nature, […], 680 to 685, 1970). […] Subsequently, the gel was decolored with a mixture of ethanol, acetic acid, and water (25:8:65) and the 66 kDa protein following electrophoresis was analyzed by densitrography. The amount of protein in the samples was determined using the Lowry method.

A further data set addresses T1, 15-lipoxygenase (15-LO) (Oryctolagus cuniculus, UniProt P12530).
T1 construct: 15-LO obtained from rabbit reticulocytes; from tissue; host or cells: rabbit reticulocytes
T1 sequence (P12530 1-663): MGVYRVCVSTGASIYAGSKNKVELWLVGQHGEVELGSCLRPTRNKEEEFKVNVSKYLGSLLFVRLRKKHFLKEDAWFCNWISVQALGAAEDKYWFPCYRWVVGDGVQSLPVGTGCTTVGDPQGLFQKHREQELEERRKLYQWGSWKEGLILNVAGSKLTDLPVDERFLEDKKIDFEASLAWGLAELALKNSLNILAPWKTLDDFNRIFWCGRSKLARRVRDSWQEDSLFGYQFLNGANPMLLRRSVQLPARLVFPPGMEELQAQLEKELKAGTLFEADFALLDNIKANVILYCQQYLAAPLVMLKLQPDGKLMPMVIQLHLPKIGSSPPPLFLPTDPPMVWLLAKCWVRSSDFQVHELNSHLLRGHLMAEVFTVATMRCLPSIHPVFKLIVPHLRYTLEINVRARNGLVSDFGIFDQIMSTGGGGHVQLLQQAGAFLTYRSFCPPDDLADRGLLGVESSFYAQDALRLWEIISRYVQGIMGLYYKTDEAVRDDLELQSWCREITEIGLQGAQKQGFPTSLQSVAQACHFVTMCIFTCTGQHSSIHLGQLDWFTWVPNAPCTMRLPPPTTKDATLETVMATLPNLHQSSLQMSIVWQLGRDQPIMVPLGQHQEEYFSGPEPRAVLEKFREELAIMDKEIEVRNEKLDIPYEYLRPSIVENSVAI
The data set can be described thus: 15-LO inhibitory activity (15-LO from rabbit reticulocytes, linoleic acid). To be noted: 256 μM linoleic acid, 4° C., read-out: Lipoxygenase inhibitory action 50% inhibitory concentration (IC50), 15-LO. In kind it is biochemical. How it is done: 15-LO inhibitory activity was measured using a variation of the method of Auerbach et al. (Auerbach B. J. et al., Anal. Biochem., 201, 375 to 380, 1992). Namely, after pre-incubating (4° C., 15 minutes) in phosphate buffer (pH 7.4) 15-LO obtained from rabbit reticulocytes and a test compound dissolved in DMSO (final concentration: 1%), 256 μM linoleic acid was added and the resulting solution was additionally incubated (4° C., 10 minutes). The resulting 15-HETE that formed was quantified by spectrophotometry (OD660 nm), and the 50% formation inhibitory concentration (μM) of the test compound with respect to 15-LO was calculated from that value.

In a further data set the target is T2, 5-lipoxygenase (5-LO) (Homo sapiens, UniProt P09917).
T2 construct: human peripheral blood mononuclear cells; endogenous in cells; host or cells: human peripheral blood mononuclear cells
T2 sequence (P09917 1-674): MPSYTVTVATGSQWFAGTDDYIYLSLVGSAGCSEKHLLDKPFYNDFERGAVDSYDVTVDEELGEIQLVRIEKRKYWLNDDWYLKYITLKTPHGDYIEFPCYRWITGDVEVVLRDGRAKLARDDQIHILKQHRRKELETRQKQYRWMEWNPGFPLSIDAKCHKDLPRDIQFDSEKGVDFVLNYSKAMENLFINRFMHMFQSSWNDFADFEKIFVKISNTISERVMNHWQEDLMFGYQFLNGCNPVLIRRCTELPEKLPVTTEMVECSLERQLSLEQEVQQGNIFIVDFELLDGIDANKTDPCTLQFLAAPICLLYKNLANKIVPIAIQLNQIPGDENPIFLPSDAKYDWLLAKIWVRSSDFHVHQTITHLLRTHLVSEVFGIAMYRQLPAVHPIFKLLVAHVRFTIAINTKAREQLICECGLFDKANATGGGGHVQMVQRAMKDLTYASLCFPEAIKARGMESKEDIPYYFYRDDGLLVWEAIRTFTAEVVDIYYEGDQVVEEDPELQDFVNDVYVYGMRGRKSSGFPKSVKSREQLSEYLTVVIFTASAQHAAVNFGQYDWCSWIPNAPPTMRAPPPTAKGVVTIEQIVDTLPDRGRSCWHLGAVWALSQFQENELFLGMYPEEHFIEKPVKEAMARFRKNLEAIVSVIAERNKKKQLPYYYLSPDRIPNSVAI
The experiment in a line: 5-LO inhibitory activity (leucotriene B4 formation in human peripheral blood mononuclear cells, A23187). In kind it is cell-based. To be noted: 30 μM A23187, leucotriene B4, read-out: Lipoxygenase inhibitory action 50% inhibitory concentration (IC50), 5-LO. How it is done:
5-LO inhibitory activity was measured using a variation of the method of Carter et al. (Carter G. W. et al., J. Pharmacol. Exp. Ther., 256, 929 to 937, 1991). Namely, after pre-incubating (37° C., 15 minutes) in Hank's solution human peripheral blood mononuclear cells and a test compound dissolved in DMSO (final concentration: 1%), 30 μM A23187 was added and the resulting solution was additionally incubated (37° C., 30 minutes). The resulting leucotriene B4 that formed was quantified by enzyme immunoassay, and the 50% formation inhibitory concentration (μM) of the test compound with respect to 5-LO was calculated from that value.

For data set [2], the system named is lipid peroxides in retina homogenate. The data set can be described thus: Retina migration: formation of lipid peroxides in retina ex vivo after oral administration. The arrangement: species or system rat. To be noted: male SD rats, retinas removed 30 minutes later, auto-oxidized 1 hour at 37° C. How it is done: The retina migration of the compounds according to the present invention was evaluated. The test compounds dissolved or suspended in 0.1 N aqueous hydrochloric acid solution or 1% polyethylene hardened castor oil (Nikkol HCO-60) solution were orally administered to male SD rats (age: 6 weeks) in groups of three animals each followed by removing both eyes 30 minutes later and separating the retinas while cooling with ice. The retinas were homogenized with a Polytron Microhomogenizer (NS-310E: manufactured by Niti-On Medical and Physical Instruments) in 0.1 M Tris-HCl buffer (pH 7.4) while cooling with ice to prepare 5% homogenates. The homogenates were then auto-oxidized for 1 hour at 37° C., and the amounts of lipid peroxide that formed were quantified using the thiobarbituric acid method (Masugi, et al., Vitamin, 51, 21 to 29, 1977).

Data set [3] concerns mice administered ferrous chloride into the spinal subarachnoid cavity. The data set can be described thus: Antioxidative action in vivo: abnormal behavior and mortality after ferrous chloride into the spinal subarachnoid cavity. To be noted: male Slc:ICR mice, 30 minutes before ferrous chloride, score after 60 minutes. The arrangement: species or system mouse. How it is done: The antioxidative action in vivo of the compounds according to the present invention was evaluated according to the method described in the Journal of Medical Chemistry (J. Med. Chem., 1997, vol. 40, pp. 559 to 573) based on the inhibitory effects on abnormal behavior and mortality rate following administration of ferrous chloride into the spinal subarachnoid cavity of mice. Male Slc:ICR mice (age: 5 weeks) (purchased from Japan SLC) were used in groups of 3 to 7 animals each, and were administered 5 μl of aqueous physiological saline solution containing 50 mM ferrous chloride into the spinal column between the 5th and 6th lumbar vertebra. […] The test compounds were dissolved or suspended in an aqueous physiological saline solution or an aqueous physiological saline solution containing 1% polyethylene hardened castor oil (manufactured by Nikko Chemicals CO., LTD. under the name of NIKKOL HCO-60), and administered intraperitoneally or orally 30 minutes before the administration of ferrous chloride. The 50% inhibitory dose (hereinafter, abbreviated as ID50) of each test compound was determined from the score of a control group (physiological saline treated group) and the score of each test compound treated group.

The nature of data set [4]: Acute oral toxicity in mice. To be noted: mouse, in vivo; male mice, single oral dose, observed for 7 days. The source says: A single dose of the test compounds according to the present invention was orally administered to male mice followed by observing for 7 days to determine the mortality rate. The compound indicated below was used for Control Drug 3.
The subject of data set [5] is lipid peroxide in homogenates of brain, heart and kidneys. The data set can be described thus: Tissue migration: antioxidative action on lipids ex vivo after intraperitoneal administration. In kind it is in vivo. To be noted: Rattus norvegicus, ip, 0.5 h, male SD rats, 100 mg/kg intraperitoneally, 30 minutes after administration. How it is done: (§1) The antioxidative action on lipids in vitro of the compounds according to the present invention was evaluated in accordance with the method of Malvy et al. (Malvy C. et al.,) described in Biochemical and Biophysical Research Communications, 1980, vol. 95, pp. 734 to 737,) by measuring the lipid peroxide activity in a rat brain homogenate. Namely, the rat brain was removed followed by the addition of five volumes of an aqueous solution of phosphate buffered saline (pH 7.4) (hereinafter, abbreviated as PBS) to the brain while cooling with water, homogenizing with a Teflon homogenizer, and centrifuging for 20 minutes at 10,000 g to collect the supernatant as a brain homogenate. 500 μM cysteine, 5 μM ferrous sulfate, and 100 mM KCl were added to the resulting brain homogenate followed by incubating for 30 minutes at 37° C. and measuring the malondialdehyde that formed due to decomposition of lipid peroxide using the thiobarbituric acid method. The 50% inhibitory concentrations (hereinafter, abbreviated as IC50) of the compounds according to the present invention were then determined from the measured values.
Tissue migration of the compounds according to the present invention was evaluated by measuring the antioxidative action on lipids ex vivo. A test compound dissolved or suspended in an aqueous physiological saline solution or aqueous physiological saline solution containing 1% polyethylene hardened castor oil (Nikko Chemicals: Nikkol HCO-60) was intraperitoneally administered to male SD rats (age: 6 weeks) (purchased from Japan SLC) in groups of 3 animals each at a dose of 100 mg/kg. The animals were sacrificed by exsanguination by severing the carotid artery 30 minutes after administration followed by removing the brain, heart and kidneys. The lipid peroxide activity of homogenates of each tissue was measured using the method described in Example 4. The inhibition rates of the test compounds in each tissue were determined from the amounts of lipid peroxide formed in a control group (physiological saline dose group) and test compound groups.

In data set [6] the test system is lipid peroxide in rat brain homogenate. The experiment in a line: Antioxidative action on lipids in vitro (lipid peroxide activity in rat brain homogenate, thiobarbituric acid method). In kind it is biochemical. To be noted: 500 μM cysteine, 5 μM ferrous sulfate, 100 mM KCl, 30 minutes at 37° C., malondialdehyde, read-out: 50% inhibitory concentration of anti-lipid peroxide action in vitro (IC50). How it is done: as §1

[7] abbreviates: brain homogenate, read-out: Inhibition rate of ex vivo anti-lipid peroxide action, Brain.
Where [8] appears, read: heart homogenate, read-out: Inhibition rate of ex vivo anti-lipid peroxide action, Heart.
Where [9] appears, read: kidney homogenate, read-out: Inhibition rate of ex vivo anti-lipid peroxide action, Kidney.

Where a name gives a salt, the structure may show the parent alone. Read-outs that look alike come from different tables or passages of the source.

As a reminder, the LD50 is the dose expected to kill half of the subjects tested. What is called inhibition is the relative decrease from the control value, in per cent. For `Cc1c(C)c2c(c(CN)c1N)CC(C)(C)O2` [Compound No. 1], the “Ratio of 66 kDa protein in UV-irradiated rat retina (right eye: irradiated/left eye: non-irradiated)” value in data set [1] is on record as 1.45. The figures for the IC50 on 15-lipoxygenase (15-LO) and at 5-lipoxygenase (5-LO) were 3.74 µM and more than 10 µM, respectively. The “Inhibitory effect on formation of lipid peroxides in retina ex vivo 30% inhibitory concentration (ID30, oral administration)” value in data set [2] amounted to 16 mg/kg. The “Antioxidative action in vivo 50% inhibitory dose (ID50), Intraperitoneal administration” value in data set [3] is reported as 1.8 mg/kg. For the same molecule, the “Antioxidative action in vivo 50% inhibitory dose (ID50), Oral administration” value in data set [3] worked out at 6 mg/kg. In data set [4], this molecule returned an LD50 at 7 days of more than 1000 mg/kg. The inhibition at 100 mg/kg in data set [5] (setting [7]) came to 93%; in data set [5] (setting [8]) it was 81%; in data set [5] (setting [9]), 83%.

On to `Cc1c(C)c2c(c(C)c1N)CC(C)(CN1CCC(c3ccccc3)CC1)O2` (centres unmarked) [Control Drug 2, reference compound], for which, on 5-lipoxygenase (5-LO), the IC50 was more than 10 µM. This molecule also displayed an LD50 at 7 days in data set [4] of less than 300 mg/kg.

Regarding `Cc1c(C)c2c(c(CN)c1N)CCC(C)(C)O2` [Compound No. 2, 2,2,7,8-tetramethyl-5-aminomethyl-6-aminochroman•-dihydrochloride], the IC50 in data set [6] is 0.34 µM. In data set [2], the “Inhibitory effect on formation of lipid peroxides in retina ex vivo 30% inhibitory concentration (ID30, oral administration)” value is 6.9 mg/kg. In data set [3], the “Antioxidative action in vivo 50% inhibitory dose (ID50), Intraperitoneal administration” value is 2.6 mg/kg. Besides, in data set [3], the “Antioxidative action in vivo 50% inhibitory dose (ID50), Oral administration” value came out at 12 mg/kg. The molecule also yielded an LD50 at 7 days in data set [4] of more than 1000 mg/kg. The inhibition at 100 mg/kg in data set [5] (setting [7]) came out at 98%; in data set [5] (setting [8]) it was 96%; in data set [5] (setting [9]), 97%.

As to `Cc1c(C)c2c(c(N)c1N)CC(C)(C)O2` [Control drug 1, reference compound], the IC50 in data set [6] worked out at 1.4 µM. Moreover, in data set [3], the “Antioxidative action in vivo 50% inhibitory dose (ID50), Intraperitoneal administration” value was more than 30 mg/kg. In addition, the “Antioxidative action in vivo 50% inhibitory dose (ID50), Oral administration” value in data set [3] is more than 30 mg/kg. Besides, the figures for the inhibition at 100 mg/kg in data set [5] (setting [7]), in data set [5] (setting [8]) and in data set [5] (setting [9]) were 94%, 84% and 87%, respectively.
